Values quoted from earlier work as cited in patent US20220241055A1, “DENTAL IMPLANT WITH ANTIBACTERIAL/ ANTIMICROBIAL PROPERTY HAVING METAL-ORGANIC FRAMEWORK (MOF) STRUCTURE AND PRODUCTION METHOD THEREOF” (RECEP TAYYIP ERDOGAN UNIVERSITESI, priority 2019, published 2022).

Details: conditions similar to body medium (SBF, 37° C.), stored in metal-organic framework structures

- duration of release of the stored drug: 6 days
Compound: CC(C)Cc1ccc(C(C)C(=O)O)cc1 (stereo not shown) [ibuprofen]
